Data on one compound can be found in patent US7560105B1, “Dendritic cells activated in the presence of glucocorticoid hormones are capable of suppressing antigen-specific T cell responses” (Leids Universitair Medisch Centrum, priority 1999, dated 2009).

For assay [1], the system named is human monocyte-derived DC. In words: DC surface phenotype by flow cytometry after CD40 ligation. It counts as cell-based. The following applies: DEX titration, data not shown. How it is done: Immature DC were generated from peripheral blood monocyte precursors (PBMC). Human PBMC from healthy donors, isolated through Ficoll-Hypaque density centrifugation were plated at 1.5×10^7 per well in 6-well plates (Costar Corp., Cambridge, Mass.) in RPMI 1640 (Life Technologies, Paisley, Scotland) supplemented with 2 mM glutamine, 100 UI/ml penicillin and 10% FCS. After 2 h at 37° C., the nonadherent cells were removed and the adherent cells were cultured in medium containing 500 U/ml IL-4 (Pepro Tech Inc. Rocky Hill, N.J.) and 800 U/ml GM-CSF (kindly provided by Dr S. Osanto, LUMC, Leiden, NL) for a total of 7 days.
Activation of DC though CD40 was performed with a fusion protein made of the extracellular domain of human CD40L and of the murine CD8a chain (CD 8-CD40L). The CD8-CD40L cDNA described by Garrone et al. (23) was transferred into an eukaryotic expression vector containing the hygromycin resistance gene and used for the generation of stably transfected Chinese Hamster Ovary (CHO) cells. […] DC were incubated at 5×10^5/ml/well in a 24-well plate (Costar Corp., Cambridge, Mass.) and activated in the presence of 1/10 CD8-CD40L supernatant. Cells and supernatants were analyzed after 48 h. […]
Cells were stained on ice with FITC or PE-conjugated mouse monoclonal antibodies (MoAb) for 30 min in PBS 1% FCS and were analyzed on a FACScan® (Becton Dickinson, San Jose, Calif.). […]
In general terms: In flow cytometry, cells or beads pass a laser one at a time.

The subject of assay [2] is human monocyte-derived DC. Briefly: Cytokine detection by ELISA in DC culture supernatants. The note with it: CD40 triggering of DEX-treated DC vs untreated. Format: cell-based. As to the method:
Data are representative from 6 independent experiments.
Activation of DC though CD40 was performed with a fusion protein made of the extracellular domain of human CD40L and of the murine CD8a chain (CD 8-CD40L). The CD8-CD40L cDNA described by Garrone et al. (23) was transferred into an eukaryotic expression vector containing the hygromycin resistance gene and used for the generation of stably transfected Chinese Hamster Ovary (CHO) cells. […] DC were incubated at 5×10^5/ml/well in a 24-well plate (Costar Corp., Cambridge, Mass.) and activated in the presence of 1/10 CD8-CD40L supernatant. Cells and supernatants were analyzed after 48 h. Of note, control supernatants obtained from untransfected CHO cells or from CHO cells transfected with the CD8a cDNA lacked DC activating functions and were similar to culture medium.
Culture supernatants were analyzed in serial two-fold dilutions in duplicate. IL-12p70 was detected using a solid phase sandwich ELISA kit (Diaclone Research, Besancon, France) (sensitivity 3 pg/ml). For IL-12p40 and IFN-g detection, capture MoAb and polyclonal biotinylated detection Ab were obtained from Peter van de Meijde (BPRC, Rijswijk, NL) (sensitivity 10 pg/ml). IL-10 was detected using the Pelikine compact human IL-10 ELISA kit (CLB, Amsterdam, NL) (sensitivity 3 pg/ml).
Background: An ELISA detects its analyte on a solid surface through an enzyme-linked reagent.

In the case of `C[C@@H]1C[C@H]2[C@@H]3CCC4=CC(=O)C=C[C@]4(C)[C@@]3(F)[C@@H](O)C[C@]2(C)[C@@]1(O)C(=O)CO` [DEX, dexamethasone], the CD40-mediated phenotypic changes entry in assay [1] (10^-9 M) is recorded as “no effect”. For the same compound, the CD40-mediated phenotypic changes result in assay [1] (10^-10) is recorded as “no effect”. In assay [2], the “enhancement of IL-10 production” value is listed as “up to 50 fold” and the “reduction of IL-12p40 production” value was “up to 100 fold”.
